Laboratory results from patent US4940789A, “10,11-dihydro-5-alkyl-12-substituted-10,5-(iminomethano)-5H-d ibenzo[a,d]cycloheptenes as neuroprotectant agents” (priority 1989, dated 1990).
Like-named read-outs stand apart in the source and are kept apart here.

Legend:
NMDA-induced lethality = NMDA-induced lethality in mice (survival; standard experimental test procedure); type: in vivo, male Swiss-albino mice (CD-1 strain); conditions: for Percent of animals which survived at the dose indicated (NMDA-induced lethality): I.P.; for ED50: Mus musculus, 0.5 h; for ED50 / ED50 Inhibition of NMDA-Induced Lethality, I.P. (dose required to produce 50% survival rate): NMDA 195 mg/kg i.p., 30 min pretreatment; for IP/PO Ratio: ED50 inhibition of NMDA-induced lethality, I.P. over P.O.; for Relative potency, antagonism of NMDA-induced lethality vs ataxia (in words): traction reflex deficit model
Method: The mice were pretreated with the representative test compounds followed thirty minutes later with NMDA (195 mg/kg, i.p., the ED90 dose for generalized myoclonus). The mice were then observed for 30 minutes, noting the latency of onset of generalized myoclonus (uncontrollable hind leg scratching or limbs and/or torso muscle jerking with loss of righting reflex) and death. From the latter, the ED50 for survival is determined. In this standard experimental test procedure, the specific compounds tested and their activity, which representatively establish the activity for all the compounds herein, is presented in Table I as follows: […]

[1] = Traction reflex deficit (ataxia) in mice; conditions: mouse, in vivo, ip, I.P., read-out: TD50 - Traction Reflex Deficit, I.P. (dose which produced the deficit in 50% of animals tested)
Text: In fact, the separation between a compounds's NMDA-antagonist activity and ataxic activity (often expressed as an "efficacy ratio" of the ED50 's of these two activities) has been extensively used to evaluate its therapeutic usefulness versus its liabilities.
^@ As measured in mice. Defined as the dose which produced the defici

[2] = result in words; cited from earlier work
[3] = tested on: high-affinity PCP binding site in the NMDA-associated ion channel; conditions: result in words; cited from earlier work
[4] = tested on: cell death in cerebral ischemia models; conditions: result in words; cited from earlier work
[5] = ip, intraperitoneal injection, read-out: ED50 Inhibition of NMDA-Induced Lethality, I.P. (dose required to produce 50% survival rate)

Compound | ED50 (NMDA-induced lethality; [5]) | TD50 [1] | further results
CC12CN(Cc3ccccn3)C(Cc3ccccc31)c1ccccc12 (stereo not shown) [Example 6, 10,11-Dihydro-5-methyl-12-(2-pyridinylmethyl)-10,5-(iminomethano)-5H-dibenzo[a,d]cycloheptene] | – | – | Percent of animals which survived at the dose indicated (NMDA-induced lethality) (NMDA-induced lethality; at 20 mg/kg): 66%
CN(C)CCCN1CC2(C)c3ccccc3CC1c1ccccc12 (stereo not shown) [Example 5, 10,11-Dihydro-N,N,5-trimethyl-10,5-(iminomethano)-5H-dibenzo[a,d]cycloheptene-12-propanamine] | – | – | Percent of animals which survived at the dose indicated (NMDA-induced lethality) (NMDA-induced lethality; at 100 mg/g (so in the source)): 66%
CC12CN(CCc3ccccc3)C(Cc3ccccc31)c1ccccc12 (stereo not shown) [Example 9, 10,11-Dihydro-5-methyl-12-(2-phenylethyl)-10,5-(iminomethano)-5H-dibenzo[a,d]cycloheptene] | – | – | Percent of animals which survived at the dose indicated (NMDA-induced lethality) (NMDA-induced lethality; at 20 mg/kg): 17%
CC12CN(CCc3ccc4ccccc4n3)C(Cc3ccccc31)c1ccccc12 (stereo not shown) [Example 7, 10,11-Dihydro-5-methyl-12-[2-(2-quinolinyl)ethyl]-10,5-(iminomethano)-5H-dibenzo[a,d]cycloheptene] | > 20 mg/kg | – | –
CC12CN(CCc3ccncc3)C(Cc3ccccc31)c1ccccc12 (stereo not shown) [Example 3, 10,11-Dihydro-5-methyl-12-[2-(4-pyridinyl)ethyl]10,5-(iminomethano)-5H-dibenzo[a,d]cycloheptene] | 18 mg/kg | 83 mg/kg | –
Cc1cccc(CCN2CC3(C)c4ccccc4CC2c2ccccc23)n1 (stereo not shown) [Example 8, 10,11-Dihydro-5-methyl-12-[2-(6-methyl-2-pyridinyl)ethyl]-10,5-(iminomethano)-5H-dibenzo[a,d]cycloheptene] | 13 mg/kg | 68 mg/kg | –
C[C@]12N[C@H](Cc3ccccc31)c1ccccc12 [MK-801, reference compound] | 0.19 mg/kg | 0.17 mg/kg | Generalization for PCP in drug discrimination [2]: generalizes for PCP; IP/PO Ratio (NMDA-induced lethality): 0.58; ED50 (NMDA-induced lethality; oral administration, read-out: ED50 Inhibition of NMDA-Induced Lethality, P.O. (dose required to produce 50% survival rate)): 0.32 mg/kg; Relative potency, antagonism of NMDA-induced lethality vs ataxia (in words) (NMDA-induced lethality): no separation; Competition for the high-affinity PCP binding site [3]: competes for the high-affinity PCP binding site; Protection against cell death in cerebral ischemia models [4]: protects against cell death in cerebral ischemia models
CC(=O)N1CC2(C)c3ccccc3CC1c1ccccc12 (stereo not shown) [Example 11, 10,11-Dihydro-5-methyl-10,5-(iminomethano)-5H-dibenzo[a,d]cycloheptene-12-acetamide] | – | – | Percent of animals which survived at the dose indicated (NMDA-induced lethality) (NMDA-induced lethality; at 10 mg/kg): 10%
CC12CN(CCc3ccccn3)C(Cc3ccccc31)c1ccccc12 (stereo not shown) [Example 2, 10,11-Dihydro-5-methyl-12-[2-(2-pyridinyl)ethyl]10,5-(iminomethano)-5H-dibenzo[a,d]cycloheptene] | 9.8 mg/kg | 67 mg/kg | IP/PO Ratio (NMDA-induced lethality): 0.57
CN1CC[C@@]23CCCC[C@@H]2[C@@H]1Cc1ccc(O)cc13 [Dextrorphan, dextrorphan, reference compound] | – | 29 mg/kg | Efficacy ratio for antagonizing NMDA-induced lethality over ataxia (in words) (NMDA-induced lethality; comparison with reference NMDA antagonists): essentially the same as that for dextromethorphan; ED50 Inhibition of NMDA-Induced Lethality, I.P. (dose required to produce 50% survival rate) (NMDA-induced lethality; intraperitoneal injection): 13 mg/kg
COc1ccc2c(c1)[C@]13CCCC[C@@H]1[C@H](C2)N(C)CC3 [Dextromethorphan, reference compound] | 21 mg/kg | 45 mg/kg | –
c1ccc(C2(N3CCCCC3)CCCCC2)cc1 [PCP, phencyclidine, reference compound] | – | 2.7 mg/kg | ED50 Inhibition of NMDA-Induced Lethality, I.P. (dose required to produce 50% survival rate) (NMDA-induced lethality; intraperitoneal injection): 1.9 mg/kg; Relative potency, antagonism of NMDA-induced lethality vs ataxia (in words) (NMDA-induced lethality): approximately equipotent; Protection against cell death in cerebral ischemia models [4]: protects against cell death in cerebral ischemia models
CN1CC2(C)c3ccccc3CC1c1ccccc12 (stereo not shown) [Example 1, 10,11-Dihydro-5,12-dimethyl-10,5-(iminomethano)-5H-dibenzo[a,d]cycloheptene] | 3.1 mg/kg | 13 mg/kg | –
CC(C)N1CC2(C)c3ccccc3CC1c1ccccc12 (stereo not shown) [Example 10, 10,11-Dihydro-5-methyl-12-(2-propyl)-10,5-(iminomethano)-5H-dibenzo[a,d]cycloheptene] | – | – | Percent of animals which survived at the dose indicated (NMDA-induced lethality) (NMDA-induced lethality; at 10 mg/kg): 100%
CC12CN(CCc3cnccn3)C(Cc3ccccc31)c1ccccc12 (stereo not shown) [Example 4, 10,11-Dihydro-5-methyl-12-(2-pyrazinylethyl)-10,5-(iminomethano)-5H-dibenzo-cycloheptene] | 12 mg/kg | 30 mg/kg | –
